Assay results reported in PubChem BioAssay (NCI).
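48-hour exposure; five concentrations; linearly interpolated endpoints. GI50 is the concentration that inhibits growth by half. TGI denotes the concentration required for complete inhibition of growth.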

What was measured:
Experiment in all cases: NCI-60 cell line screen, 48 h
SNB-19 CNS = system: SNB-19 CNS
HCT-116 colon = system: HCT-116 colon
SN12C renal = system: SN12C renal
HOP-92 NSCLC = system: HOP-92 NSCLC
HCC-2998 colon = system: HCC-2998 colon
A549 NSCLC = system: A549 NSCLC
COLO 205 colon = system: COLO 205 colon
UO-31 renal = system: UO-31 renal
UACC-257 melanoma = system: UACC-257 melanoma
M14 melanoma = system: M14 melanoma
U251 CNS = system: U251 CNS
K-562 leukemia = system: K-562 leukemia
TK-10 renal = system: TK-10 renal
SNB-75 CNS = system: SNB-75 CNS
CCRF-CEM leukemia = system: CCRF-CEM leukemia
NCI/ADR-RES ovarian = system: NCI/ADR-RES ovarian
OVCAR-4 ovarian = system: OVCAR-4 ovarian
IGROV1 ovarian = system: IGROV1 ovarian
MOLT-4 leukemia = system: MOLT-4 leukemia
SW-620 colon = system: SW-620 colon
NCI-H23 lung = system: NCI-H23 lung
RPMI-8226 leukemia = system: RPMI-8226 leukemia
MDA-MB-435 = system: MDA-MB-435
786-0 renal = system: 786-0 renal
MDA-MB-468 breast = system: MDA-MB-468 breast
CAKI-1 renal = system: CAKI-1 renal
MALME-3M melanoma = system: MALME-3M melanoma
A498 renal = system: A498 renal
SK-MEL-5 melanoma = system: SK-MEL-5 melanoma
LOX IMVI melanoma = system: LOX IMVI melanoma
DU-145 prostate = system: DU-145 prostate
MDA-MB-231 breast = system: MDA-MB-231 breast
NCI-H522 lung = system: NCI-H522 lung
HCT-15 colon = system: HCT-15 colon
SF-295 CNS = system: SF-295 CNS
EKVX NSCLC = system: EKVX NSCLC
HS 578T breast = system: HS 578T breast
SF-268 CNS = system: SF-268 CNS
SK-MEL-2 melanoma = system: SK-MEL-2 melanoma
ACHN renal = system: ACHN renal
SK-MEL-28 melanoma = system: SK-MEL-28 melanoma
UACC-62 melanoma = system: UACC-62 melanoma
BT-549 breast = system: BT-549 breast
OVCAR-5 ovarian = system: OVCAR-5 ovarian
NCI-H460 lung = system: NCI-H460 lung
MCF7 breast = system: MCF7 breast
HL-60(TB) leukemia = system: HL-60(TB) leukemia
T-47D breast = system: T-47D breast
PC-3 prostate = system: PC-3 prostate
OVCAR-8 ovarian = system: OVCAR-8 ovarian
NCI-H226 lung = system: NCI-H226 lung
HT29 colon = system: HT29 colon
SK-OV-3 ovarian = system: SK-OV-3 ovarian
SR leukemia = system: SR leukemia
HOP-62 NSCLC = system: HOP-62 NSCLC
RXF 393 renal = system: RXF 393 renal
SF-539 CNS = system: SF-539 CNS
KM12 colon = system: KM12 colon
OVCAR-3 ovarian = system: OVCAR-3 ovarian

## CC(=O)Nc1ccc(-c2cn(-c3cccc(C(=O)Nc4ccc(F)c(C(F)(F)F)c4)c3)nn2)cn1
SNB-19 CNS
  GI50: 19.5 µM
  TGI: 34.9 µM
HCT-116 colon
  GI50: 1.47 µM
  TGI: 18.2 µM
SN12C renal
  GI50: 16.1 µM
  TGI: 30.4 µM
HOP-92 NSCLC
  GI50: 15.8 µM
  TGI: 35.1 µM
HCC-2998 colon
  GI50: 16.9 µM
  TGI: 32.6 µM
A549 NSCLC
  GI50: 25.2 µM
  TGI: 68.5 µM
COLO 205 colon
  GI50: 18.3 µM
  TGI: 41.3 µM
UO-31 renal
  GI50: 15.4 µM
  TGI: 29.6 µM
UACC-257 melanoma
  GI50: 17.6 µM
  TGI: 38.6 µM
M14 melanoma
  GI50: 15 µM
  TGI: 41.3 µM
U251 CNS
  GI50: 23.5 µM
  TGI: 57.7 µM
K-562 leukemia
  GI50: 4.13 µM
  TGI: 24.6 µM
TK-10 renal
  GI50: 23.7 µM
  TGI: 41.1 µM
SNB-75 CNS
  GI50: 13.8 µM
  TGI: 35.7 µM
CCRF-CEM leukemia
  GI50: 22.2 µM
  TGI: 71.5 µM
NCI/ADR-RES ovarian
  GI50: 27.5 µM
  TGI: 89.1 µM
OVCAR-4 ovarian
  GI50: 20.3 µM
  TGI: 40.9 µM
IGROV1 ovarian
  GI50: 16.5 µM
  TGI: 30.9 µM
MOLT-4 leukemia
  GI50: 20.2 µM
  TGI: 61.1 µM
SW-620 colon
  GI50: 17.1 µM
  TGI: 33.8 µM
NCI-H23 lung
  GI50: 14.8 µM
  TGI: 28.8 µM
RPMI-8226 leukemia
  GI50: 24.3 µM
  TGI: 66.2 µM
MDA-MB-435
  GI50: 16.8 µM
  TGI: 32.9 µM
786-0 renal
  GI50: 2.6 µM
  TGI: 11.1 µM
MDA-MB-468 breast
  GI50: 14.8 µM
  TGI: 29 µM
CAKI-1 renal
  GI50: 17.3 µM
  TGI: 32.7 µM
MALME-3M melanoma
  GI50: 9.6 µM
  TGI: 21.8 µM
A498 renal
  GI50: 26.6 µM
  TGI: 43.4 µM
SK-MEL-5 melanoma
  GI50: 17.2 µM
  TGI: 34 µM
LOX IMVI melanoma
  GI50: 13.8 µM
  TGI: 26.7 µM
DU-145 prostate
  GI50: 27 µM
  TGI: 79.3 µM
MDA-MB-231 breast
  GI50: 11.2 µM
  TGI: 24.1 µM
NCI-H522 lung
  GI50: 17.7 µM
  TGI: 38.1 µM
HCT-15 colon
  GI50: 17.2 µM
  TGI: 33.4 µM
SF-295 CNS
  GI50: 14.6 µM
  TGI: 28.2 µM
EKVX NSCLC
  GI50: 18.1 µM
  TGI: 34 µM
HS 578T breast
  GI50: 17.4 µM
  TGI: 66.7 µM
SF-268 CNS
  GI50: 26.5 µM
  TGI: 63.4 µM
SK-MEL-2 melanoma
  GI50: 16.6 µM
  TGI: 34.4 µM
ACHN renal
  GI50: 15.7 µM
  TGI: 30.1 µM
SK-MEL-28 melanoma
  GI50: 14.6 µM
  TGI: 28 µM
UACC-62 melanoma
  GI50: 14.2 µM
  TGI: 27.6 µM
BT-549 breast
  GI50: 13.2 µM
  TGI: 30.9 µM
OVCAR-5 ovarian
  GI50: 17.7 µM
  TGI: 35 µM
NCI-H460 lung
  GI50: 16.8 µM
  TGI: 32.2 µM
MCF7 breast
  GI50: 16 µM
  TGI: 34.3 µM
HL-60(TB) leukemia
  GI50: 6.57 µM
  TGI: > 100 µM
T-47D breast
  GI50: 22.9 µM
  TGI: 66.4 µM
PC-3 prostate
  GI50: 16 µM
  TGI: 38.1 µM
OVCAR-8 ovarian
  GI50: 28 µM
  TGI: 89.8 µM
NCI-H226 lung
  GI50: 18.4 µM
  TGI: 36.3 µM
HT29 colon
  GI50: 16.3 µM
  TGI: 33.6 µM
SK-OV-3 ovarian
  GI50: 20.7 µM
  TGI: 45.4 µM
SR leukemia
  GI50: 31 µM
  TGI: > 100 µM
HOP-62 NSCLC
  GI50: 21.2 µM
  TGI: 44.6 µM
RXF 393 renal
  GI50: 14.5 µM
  TGI: 31.6 µM
SF-539 CNS
  GI50: 15.1 µM
  TGI: 28.5 µM
KM12 colon
  GI50: 6.64 µM
  TGI: 53.5 µM
OVCAR-3 ovarian
  GI50: 21.2 µM
  TGI: 41.4 µM
